This passage reports Increase and Serum Mg2+ level results from ChEMBL document CHEMBL1132096, “Structure-related enhancing activity of escins Ia, Ib, IIa and IIb on magnesium absorption in mice” (1999).

Experiment [1] has as its system Mus musculus. In words: Increased Magnesium ion level in 0.5 M MgSO4 loaded ([…] p.o.) mice at a concentration of 25 mg/kg administered perorally. Format: functional. Conditions: route oral.
The subject of experiment [2] is Mus musculus. Description: Serum Magnesium ion level in 0.5 M MgSO4 loaded ([…] p.o.) mice at a concentration of 5 mg/kg administered perorally. Format: functional, organism-based. On the set-up: dose 5 mg/kg.
The subject of experiment [3] is Mus musculus. In words: Increased Magnesium ion level in 0.5 M MgSO4 loaded ([…] p.o.) mice at a concentration of 12.5 mg/kg administered perorally. Format: functional. Conditions: route oral.
Experiment [4] has as its system Mus musculus. Description: Serum Magnesium ion level in 0.5 M MgSO4 loaded ([…] p.o.) mice at a concentration of 25 mg/kg administered perorally. Format: functional, organism-based. Further details: dose 25 mg/kg.
Experiment [5] deals with Mus musculus. Description: Serum Magnesium ion level in 0.5 M MgSO4 loaded ([…] p.o.) mice at a concentration of 12.5 mg/kg administered perorally. On the set-up: dose 12.5 mg/kg. Format: functional, organism-based.
The subject of experiment [6] is Mus musculus. Description: Serum Magnesium ion level in MgSO4 unloaded mice at a concentration of 25 mg/kg administered perorally. Format: functional, organism-based. On the set-up: dose 25 mg/kg.
The test system of experiment [7] is Mus musculus. In words: Increased Magnesium ion level in 0.5 M MgSO4 loaded ([…] p.o.) mice at a concentration of 5 mg/kg administered perorally. Format: functional. Conditions: route oral.
Experiment [8] has as its system Mus musculus. In words: Serum Magnesium ion level in 0.5 M MgSO4 loaded ([…] p.o.) mice pretreatment with Insulin (1U/kg, s.c) at a concentration of 12.5 mg/kg administered perorally. Format: functional, organism-based. Further details: dose 12.5 mg/kg.
Experiment [9] deals with Mus musculus. Description: Increased Magnesium ion level in 1.67 M MgSO4 loaded ([…] p.o.) mice pretreatment with STZ (100 mg/kg, i.v.) at a concentration of 50 mg/kg administered perorally. Format: functional. As to conditions: route oral.
Experiment [10] relates to Mus musculus. Description: Serum Magnesium ion level in 1.67 M MgSO4 loaded ([…] p.o.) mice pretreatment with STZ (100 mg/kg, i.v.) at a concentration of 50 mg/kg administered perorally. Format: functional, organism-based. Further details: dose 50 mg/kg.
Experiment [11] has as its system Mus musculus. In words: Serum Magnesium ion level in 0.5 M MgSO4 loaded ([…] p.o.) mice at a concentration of 25 mg/kg administered perorally. On the set-up: dose 25 mg/kg. Format: functional, organism-based.
Experiment [12] concerns Mus musculus. In words: Increased Magnesium ion level in 0.5 M MgSO4 loaded ([…] p.o.) mice pretreatment with Insulin (1U/kg, s.c) at a concentration of 12.5 mg/kg administered perorally. Format: functional. Conditions: route oral.
Experiment [13] has as its system Mus musculus. Description: Increased Magnesium ion level in 1.67 M MgSO4 loaded ([…] p.o.) mice at a concentration of 50 mg/kg administered perorally. Conditions: route oral. Format: functional.
The subject of experiment [14] is Mus musculus. Description: Serum Magnesium ion level in 0.5 M MgSO4 loaded ([…] p.o.) mice pretreatment with Indomethacin (10 mg/kg, s.c) at a concentration of 12.5 mg/kg administered perorally. Format: functional, organism-based. On the set-up: dose 12.5 mg/kg.
The test system of experiment [15] is Mus musculus. Description: Serum Magnesium ion level in 1.67 M MgSO4 loaded ([…] p.o.) mice at a concentration of 50 mg/kg administered perorally. Further details: dose 50 mg/kg. Format: functional, organism-based.
For experiment [16], the system named is Mus musculus. Description: Increased Magnesium ion level in 0.5 M MgSO4 loaded ([…]) mice pretreatment with Indomethacin (10 mg/kg, s.c) at a concentration of 12.5 mg/kg administered perorally. Format: functional. Conditions: route oral.

In the case of `C/C=C(\C)C(=O)O[C@H]1[C@H](OC(C)=O)[C@@]2(CO)C(CC1(C)C)C1=CCC3[C@@]4(C)CC[C@H](O[C@@H]5OC(C(=O)O)C(O[C@@H]6OC(CO)C(O)[C@@H](O)[C@@H]6O)[C@@H](O)[C@@H]5O[C@@H]5OC(CO)C(O)[C@@H](O)[C@@H]5O)[C@](C)(CO)C4CC[C@@]3(C)[C@]1(C)C[C@H]2O` (stereo partly specified), the figures for the Increase in the experiment on Mus musculus [1], with Mus musculus [3] and with Mus musculus [7] were 9.1%, 0% and 9.1%, respectively. For the same compound, the Serum Mg2+ level with Mus musculus [2] came out at 3.6; with Mus musculus [4], 3.6; in the experiment with Mus musculus [5], 3.3; in the experiment with Mus musculus [6], 3.1.

As to `C/C=C(/C)C(=O)O[C@H]1[C@H](OC(C)=O)[C@@]2(CO)C(CC1(C)C)C1=CCC3[C@@]4(C)CC[C@H](O[C@@H]5OC(C(=O)O)C(O[C@@H]6OC(CO)C(O)[C@@H](O)[C@@H]6O)[C@@H](O)[C@@H]5O[C@@H]5OC(CO)C(O)[C@@H](O)[C@@H]5O)[C@](C)(CO)C4CC[C@@]3(C)[C@]1(C)C[C@H]2O` (stereo partly specified), the Serum Mg2+ level in the experiment on Mus musculus [8] was found to be 5.1; with Mus musculus [10] it was 6.3; in the experiment on Mus musculus [11] it was 4.1; in the experiment with Mus musculus [2] it was 3.7; with Mus musculus [5], 3.9; with Mus musculus [14], 4.3. The Serum Mg2+ level in the experiment on Mus musculus [15] stood at 7.9; in the experiment on Mus musculus [6], 3.1. In addition, the Increase was determined as 26% with Mus musculus [9]; 24.2% in the experiment on Mus musculus [1]; 30.8% in the experiment on Mus musculus [12]; 18.2% with Mus musculus [3]; 38.6% in the experiment with Mus musculus [13]; 34.4% in the experiment on Mus musculus [16]. Besides, in the experiment on Mus musculus [7], the Increase was 12.1%.

`C/C=C(\C)C(=O)O[C@H]1[C@H](OC(C)=O)[C@@]2(CO)C(CC1(C)C)C1=CCC3[C@@]4(C)CC[C@H](O[C@@H]5O[C@H](C(=O)O)[C@@H](O[C@@H]6O[C@H](CO)[C@@H](O)[C@H](O)[C@H]6O)[C@H](O)[C@H]5O[C@@H]5OC[C@@H](O)[C@H](O)[C@H]5O)[C@](C)(CO)C4CC[C@@]3(C)[C@]1(C)C[C@H]2O` (stereo partly specified) [AESCIN]: the figures for the Increase in the experiment with Mus musculus [1], in the experiment with Mus musculus [3] and in the experiment on Mus musculus [7] were 12.5%, -3.1% and -6.3%, respectively. The Serum Mg2+ level turned out to be 3.6 in the experiment on Mus musculus [11], 3 with Mus musculus [2], 3.1 in the experiment on Mus musculus [5] and 3.1 in the experiment on Mus musculus [6].

`CC1(C)CC2C3=CCC4[C@@]5(C)CC[C@H](O[C@@H]6OC(C(=O)O)C(O[C@@H]7OC(CO)C(O)[C@@H](O)[C@@H]7O)[C@@H](O)[C@@H]6O[C@@H]6OCC(O)[C@@H](O)[C@@H]6O)[C@](C)(CO)C5CC[C@@]4(C)[C@]3(C)C[C@@H](O)[C@@]2(CO)[C@@H](O)[C@@H]1O` (stereo partly specified): the Increase in the experiment on Mus musculus [1] was found to be 3%. Moreover, in the experiment with Mus musculus [11], the Serum Mg2+ level was 3.4.
